Data reported in publication PMC12037730 (Nature Communications, 2025).

Tests used:
PRPS1 [1] = molecular target: T1, PRPS1 (Homo sapiens, UniProt P60891); test: steady-state kinetics, coupled assay at […] nm; assay type: biochemical
T1 construct: full length
T1 sequence (P60891 2-318): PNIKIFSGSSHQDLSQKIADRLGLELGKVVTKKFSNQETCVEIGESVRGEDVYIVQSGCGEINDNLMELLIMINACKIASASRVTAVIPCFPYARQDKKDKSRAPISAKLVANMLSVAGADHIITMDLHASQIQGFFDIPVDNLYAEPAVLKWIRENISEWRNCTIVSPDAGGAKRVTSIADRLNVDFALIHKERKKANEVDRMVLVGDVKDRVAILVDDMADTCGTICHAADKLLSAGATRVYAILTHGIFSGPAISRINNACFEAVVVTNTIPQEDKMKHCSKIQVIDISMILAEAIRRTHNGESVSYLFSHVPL

PRPS2(-3AA/Q156K) = molecular target: T2, PRPS2(-3AA/Q156K) (Homo sapiens, UniProt P11908, Q153K); test: HPLC feedback inhibition assay (AMP production); assay type: biochemical
T2 construct: full length chimeric variant, 3AA (V103, G104, E105) deleted
T2 sequence (P11908 2-318 Q153K): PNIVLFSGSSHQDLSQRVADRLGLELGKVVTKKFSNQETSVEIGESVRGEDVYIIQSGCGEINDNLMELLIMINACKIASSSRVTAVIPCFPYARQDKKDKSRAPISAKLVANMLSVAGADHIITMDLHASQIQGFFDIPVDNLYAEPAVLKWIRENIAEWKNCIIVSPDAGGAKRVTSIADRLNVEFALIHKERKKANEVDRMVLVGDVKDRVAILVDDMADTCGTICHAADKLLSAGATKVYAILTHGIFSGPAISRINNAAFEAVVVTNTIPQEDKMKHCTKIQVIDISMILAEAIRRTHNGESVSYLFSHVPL

PRPS1 [2] = molecular target: T1, PRPS1; test: ITC; co-crystal structure with R5P, ApCpp, Cd2+; enzyme inhibition (IC50 […]); assay type: binding
[3] = molecular target: the molecule itself; test: crystal structure; co-crystallisation of 500 μM purified PRPS with ApCpp or GDP (1:5), R5P, crystals soaked in 1 mM CdCl2; 277 K

Molecule: Nc1ncnc2c1ncn2[C@@H]1O[C@H](COP(=O)(O)OP(=O)(O)OP(=O)(O)O)[C@@H](O)[C@H]1O [ATP]
- steady-state kinetics, coupled assay at 340 nm (PRPS1 [1]): The catalytic efficiencies of PRPS2 and PRPS1 on either ATP or R5P were characterized

Molecule: Nc1nc2c(ncn2[C@@H]2O[C@H](CO[P@](=O)(O)OP(=O)(O)O)[C@@H](O)[C@H]2O)c(=O)[nH]1 [GDP]
- HPLC feedback inhibition assay (AMP production) (PRPS2(-3AA/Q156K)): chimeric variants of PRPS1( + 3AA/K153Q) and PRPS2(-3AA/Q156K), which exhibited switched GDP feedback inhibition responses
- Kd (PRPS1 [2]): 10 µM

B1: recombinant PRPS2 (enzyme, human, UniProt P11908-2 1-321, looked up)
chain: MPNIVLFSGSSHQDLSQRVADRLGLELGKVVTKKFSNQETSVEIGESVRGEDVYIIQSGCGEINDNLMELLIMINACKIASSSRVTAVIPCFPYARQDKKDKVGESRAPISAKLVANMLSVAGADHIITMDLHASQIQGFFDIPVDNLYAEPAVLQWIRENIAEWKNCIIVSPDAGGAKRVTSIADRLNVEFALIHKERKKANEVDRMVLVGDVKDRVAILVDDMADTCGTICHAADKLLSAGATKVYAILTHGIFSGPAISRINNAAFEAVVVTNTIPQEDKMKHCTKIQVIDISMILAEAIRRTHNGESVSYLFSHVPL
notes: PRPS2, human, full-length gene synthesised and subcloned into pSumo; the form with V103, G104, E105 (3AA) in Loop2 and Q156, i.e. the 321-residue isoform; Crystallised with R5P, ApCpp and Cd2+; source: E. coli BL21(DE3), purified (Ni-NTA, ion exchange, Superdex-200); not shown: His-Sumo, N-terminal, cleaved
- binding result [3]: binds

B2: PRPS1( + 3AA), PRPS1 chimeric variant (enzyme, human, UniProt P60891 1-318, looked up)
chain: MPNIKIFSGSSHQDLSQKIADRLGLELGKVVTKKFSNQETCVEIGESVRGEDVYIVQSGCGEINDNLMELLIMINACKIASASRVTAVIPCFPYARQDKKDKVGESRAPISAKLVANMLSVAGADHIITMDLHASQIQGFFDIPVDNLYAEPAVLKWIRENISEWRNCTIVSPDAGGAKRVTSIADRLNVDFALIHKERKKANEVDRMVLVGDVKDRVAILVDDMADTCGTICHAADKLLSAGATRVYAILTHGIFSGPAISRINNACFEAVVVTNTIPQEDKMKHCSKIQVIDISMILAEAIRRTHNGESVSYLFSHVPL
notes: PRPS1, human, full length, with the three residues V, G, E of PRPS2 (V103, G104, E105) inserted into the corresponding position of Loop2; the C-terminal residue is then L321; Crystallised with R5P, ApCpp and Cd2+; also called PRPS1 chimera; source: E. coli BL21(DE3), purified (Ni-NTA, ion exchange, Superdex-200); not shown: His-Sumo, N-terminal, cleaved
- binding result [3]: binds
